Test results reported in a melting point compilation (Tetko et al.; mined from patent text by program, amines drawn as free bases though some values may be those of a salt).

Compound	melting point [°C]
Cc1ccc(C(=O)Nc2ccc(CN3CCCC3)c(C(F)(F)F)c2)cc1-c1ccc2cnncc2c1	168 to 170
CC(C)N(CCn1cc(C(=O)NCc2ccc(Cl)cc2)c(=O)c2cc(C#CCO)ccc21)C(C)C	188 to 191
CNC(=O)c1nc(C)n2c1CN=C(c1ccccc1)c1cc(Cl)ccc1-2	260 to 263
Cc1cc(C)cc(-c2nc(NC(=O)c3ccncc3)sc2-c2ccncc2)c1	302 to 304
CC(CCCOc1ccc(C2=C(c3ccccc3)CCCc3cc(O)ccc32)cc1)S(=O)(=O)Cc1ccco1 (stereo not given)	168
COC(=O)c1ccc(OCCC2CCN(c3cc(Cl)nnc3Cl)CC2)cc1	115 to 117
CNC(=O)CC1N=C(C2CCCCC2)c2c(sc(C)c2C)-n2c(C)nnc21 (stereo not given)	228 to 231
CC(C)c1ccc(C2c3cc(N(C)C(=O)CC(C)(C)C)ccc3OC2(C)C)cc1 (stereo not given)	78 to 79
Cc1cc(OCC(=O)O)c(C(C)C)cc1SCc1sc(-c2ccc(C(F)(F)F)cc2)nc1C	168 to 171
COC(=O)NNc1ccc(C)c2c1OC(C)C2 (stereo not given)	62 to 65
CC1CNc2c(cccc2S(=O)(=O)N[C@@H](CCCNC(=N)N)C(=O)N2CC[C@@H](C)C[C@@H]2C(=O)O)C1 (stereo not given in full)	188 to 191
CC(=O)n1ccc(-c2c(-c3ccncc3)c(-c3ccc(F)cc3)nn2CCO)cc1=O	220 to 221
COc1cc2c(cc1OC(C)=O)CCC1C3=CC=C(OC(C)=O)C3(C)CCC21 (stereo not given)	191 to 194
CCC(C)N(C)C(=O)c1cc2sccc2c(-c2ccccc2)n1 (stereo not given)	104
CCS(=O)C1(Cl)CC2C(Cc3ccccc3)C(=O)N2C1C(=O)OCc1ccccc1 (stereo not given)	118 to 123
OCc1cn(C(c2ccccc2)(c2ccccc2)c2ccccc2)nn1	200 to 201
Cc1cc(F)cnc1Cl	38 to 40
O=C(NNc1ccccc1)N1CCN2C(=O)OC(c3ccccc3)(c3ccccc3)C2C1 (stereo not given)	227 to 228
O=C(Nc1cnc(-c2ccccc2)nc1Cl)OCc1ccccc1	120 to 121
COc1ccc(C=CC(=O)O)cc1-c1cc2c(cc1OCCCCCO)C(C)(C)CCC2(C)C	115 to 117
O=C(O)C1(c2cccc(C(F)(F)F)c2)CCN(Cc2ccccc2)CC1	243

Compound	melting point [°C]
CN(c1nc2ccccc2c(=O)o1)c1ccccc1I	144 to 148
Cc1ccccc1CCNC(=O)c1ccc(Br)cc1	102 to 103
Cn1c(-c2ccccc2S(=O)c2nc3ccccc3[nH]2)nc2ccccc21 (stereo not given)	164
CC1(COc2ccc([N+](=O)[O-])cc2)CC(=O)c2cc(C(=O)O)ccc2O1 (stereo not given)	227 to 235
COc1ccc(OC(Cc2ccc(OCCNC(=O)c3ccc(-c4ccccn4)cc3)cc2)C(=O)O)cc1 (stereo not given)	67.5 to 70
CCCCCCCC(=O)c1ccc(CCOS(=O)(=O)c2ccc(C)cc2)cc1	59 to 60
N#CC1CN1C(=O)NC(=O)C=Cc1ccccc1 (stereo not given)	134 to 136
COc1ccc(-c2cc(=O)n(C)c(=O)n2CC(O)CNC(C)(C)C)cc1OC (stereo not given)	123 to 125
OC[C@H](O)CCOc1nc(N2CCNCC2)nc2ccccc12	151 to 156
COc1ccccc1CNC(=O)C1N(C(=O)C(O)C(Cc2ccccc2)NC(=O)c2cccc(O)c2C)CSC1(C)C (stereo not given)	123 to 125
N#Cc1ccc(N2C(=O)NC3(CCOCC3)C2=O)cc1C(F)(F)F	192 to 193
Nc1c(Br)cc(Oc2cc(Br)c(N)c(Br)c2)cc1Br	166 to 167
CC(Cn1cc(Sc2ccccc2)c2ccccc21)N(O)C(N)=O (stereo not given)	73 to 76
Cc1cccc([N+](=O)[O-])c1C(=O)N[C@@H]1c2cc(OC(F)(F)F)ccc2OC(C)(C)[C@H]1O	204 to 206
Cc1cc(C(=O)Nc2c(C)cccc2O)c(Br)s1	164 to 167
CCOP(=O)(NC(=O)c1[nH]c2cc(OC)c(OC)cc2c1-c1ccc(OC)c(OC)c1)OCC	217 to 219
Cc1ccc(C(=O)c2cc(CN(C)CCO)c(O)c(C(C)(C)C)c2)cc1	131 to 132
Cc1ccc(S(=O)(=O)OCCC2(C)OCCc3nc(-c4ccccc4)sc32)cc1 (stereo not given)	86 to 87
CC(C)(Oc1ccc(Cl)cc1Cl)C(=O)C(Cc1ccc(Cl)cc1)n1cncn1 (stereo not given)	104 to 108
COCCOC(=O)c1ccc(-c2ccc(N)cc2)c(C)c1	72 to 75
CCOc1ccc(C2=NN(C(=O)c3cccc([N+](=O)[O-])c3)CCC2)cc1OCC	119 to 120

Now from value to compound:

melting point [°C]	Compound
187 to 189	C=C(C)Cn1c(=O)n(C)c(=O)c2cn(Cc3cccc4ccccc34)nc21
198 to 204	COc1ccc(-c2nc(C)c([N+](=O)[O-])[nH]2)cc1
128 to 131	CCCCCn1c(C#N)ccc1-c1ccc2c(c1)C(C)(C)OC(=O)N2
238	Nc1ncnc2c1ncn2OCC/C=C/P(=O)(O)O
98 to 100	CCOC(=O)c1c(C)nc(C)n1Cc1ccc2oc(-c3ccccc3-c3nnn(C(c4ccccc4)(c4ccccc4)c4ccccc4)n3)c(Br)c2c1
155 to 157	COc1ccc(-n2cnc(OC(C)C(=O)O)n2)cc1 (stereo not given)
80 to 83	CC1(C(=O)c2c[nH]c3ncc(-c4cccc(CCCO)c4)nc23)CCCCC1
185 to 187	CC(=O)Oc1ccc(NCc2c(F)c(F)c(C(F)(F)F)c(F)c2F)cc1C(=O)O
159 to 160	CC1CCN(CC(=O)N2c3ccccc3N(C)S(=O)(=O)c3ccccc32)CC1
85 to 86	CCN(C(=O)OCc1ccccc1)c1c(OC)cc(C(=O)OC)cc1OC
47 to 48	CCOC(=O)c1cnoc1-c1ccc(Br)cc1
149 to 151	CCC(=O)N[C@H]1CCc2c(ccc(OC)c2OC)C1
197 to 198	CC(=O)c1cc(NC(=O)NCCN(CCNC(=O)Nc2cc(C(C)=O)cc(C(C)=O)c2)CCNC(=O)Nc2cc(C(C)=O)cc(C(C)=O)c2)cc(C(C)=O)c1
160 to 161	Cc1ncccc1-c1nc(C(F)(F)F)cn1-c1ccc(S(C)(=O)=O)cc1
206 to 207	O=C(O)C1=Cc2c(Cl)ccc(Cl)c2OC1C(F)(F)F (stereo not given)
86 to 88	COc1ccc(C(C)(C)C(=O)O)cc1
207 to 209	CC1(C)SC(c2ccc(O)cc2)NC1C(=O)O (stereo not given)
164	Cc1ccc2c(N3CCN(CCc4cccc(N5CCNC5=O)c4)CC3)cccc2n1
184 to 185	COc1ccc(C(=Cc2cc3c(cc2[N+](=O)[O-])OCO3)C(=O)O)cc1
154 to 155	Cc1c(CCC(=O)O)c2cc(Cl)ccc2n1Cc1ccc(Br)cc1
217 to 219	O=C(c1cccc2cc[nH]c12)N1CCN(c2ccccc2)CC1
206 to 207	Cc1ccc(S(=O)(=O)N2CCC(c3ccc(O)cc3O)CC2)cc1
190	CCCS(=O)(=O)Oc1ccc(-c2c(C)c(C(=O)NN3CCCCC3)nn2-c2ccc(Cl)cc2Cl)cc1
131	C=CCOc1ccc2c(c1)c(C)c(CCC(=O)O)n2Cc1ccc(Cl)cc1
155 to 158	Cc1c(C(=O)N(CC(=O)O)c2ccc(N3CCC(O)CC3)c(C#N)c2)cnn1-c1ccc(F)cc1
99 to 101	O=S(=O)(Nc1cccc(CCOCc2ccc(-c3ccc(Cl)cc3)cc2F)c1)C(F)(F)F
120 to 122	COCOC1=C(C(N)=O)CC(C#N)(c2cccc(OCC3CC3)c2)CC1 (stereo not given)

melting point [°C]	Compound
144 to 145	CCNC(=O)CNc1c(C#N)cnn1-c1ccc(C(F)(F)F)cc1Cl
110 to 112	COc1cc(C(CCN(C)C)C(N)=O)cc(OC)c1OC (stereo not given)
46.5 to 48	CC(C)(CO)c1ccc(Br)cc1
117 to 118	Cc1cc(SC(C)C)c(NC(=O)CSc2nc3ccccc3s2)c(SC(C)C)n1
291 to 293	CC(C)c1ccc(C(=O)Nc2cn3cc(-n4ccnc4)ccc3n2)cc1
192 to 193	COc1ccc(CCc2nnc(-c3ccc4[nH]ncc4c3)o2)cc1C(F)(F)F
90	N#CC(Cl)Cc1cccc([N+](=O)[O-])c1 (stereo not given)
85 to 87	Brc1cccc(C2Cc3cnc(Nc4ccc(CCNCCN5CCOCC5)cc4)nc3-c3ccccc32)c1 (stereo not given)
158	CCCCOC(=O)c1ccc2ccc(C(=O)O)nc2c1OC(=O)C(C)(C)C
194 to 195	Cn1nc(C(=O)NCc2ccc(Cl)cc2)c(=O)c2cc(I)ccc21
154	CC(C)(CCCCCCCCCCC(C)(C)C(Cl)(Cl)C(=O)O)C(Cl)(Cl)C(=O)O
183	CON(C)S(=O)(=O)c1ccccc1S(=O)(=O)NC(=O)n1nc(OCC(F)(F)F)n(C)c1=O
122	O=S(=O)(c1ccccc1)N1CCCC1c1ccc(Cl)cc1 (racemic)
76.2 to 81.7	Clc1ccc2c(c1)CCc1cccnc1C2=C1CCN(Cc2ccc(Cl)nc2)CC1
158 to 159	Cc1oc(-c2ccco2)nc1COc1ccc(COc2nn(Cc3ccccc3)cc2C=O)cc1Cl
75.3 to 77.4	CC(Br)C(=O)NOCc1ccccc1 (stereo not given)
242 to 244	Cc1nc(-n2ccc(OCc3ccc(OC(F)F)cc3)cc2=O)sc1C(=O)NCc1ccc(F)cc1
176 to 178	CCc1sc2ccc(C)cc2c1S(=O)(=O)Nc1onc(C)c1Br
116 to 118	COCCN(CCOC)C(=O)c1cccc(NC(=O)Oc2ccccc2)c1
228 to 230	Cc1noc(C)c1-c1cccc2c1C1(COc3cc4c(cc31)OCCO4)C(=O)N2C (stereo not given)
173 to 175	CC1=CCC(NC(=O)NS(=O)(=O)c2ccc(CCNC(=O)N3CCC(C)CC3=O)cc2)CC1 (stereo not given)
248 to 250	NC1=C(NC=O)C(=O)N2CCN=C2N1Cc1ccccc1
115 to 117	COc1cc(N)c(Cl)cc1C(=O)NCC1CCN(CCCCCC(=O)c2ccc(C)c(C)c2)CC1
243 to 245	CCn1cc(C(=O)O)c(=O)cc1-c1ccc(O)cc1
218 to 220	CNC(=O)c1cc(-c2ccc(S(C)=O)cc2)c(-c2ccc(F)cc2)s1 (stereo not given)
143 to 145	N#Cc1ncc(-c2ccccc2)nc1Cl
